Source: PMC8840612, “Inhibition of α-Glucosidase, Acetylcholinesterase, and Nitric Oxide Production by Phytochemicals Isolated from Millettia speciosa—In Vitro and Molecular Docking Studies” (Plants, 2022)
≈ marks a conversion by molar mass, not a printed value. Where two headings read alike, the source gives them in different places.

How the values were obtained:
[1] = target: acetylcholinesterase (AChE) (Homo sapiens, UniProt P22303); test: biochemical
Protocol: The acetylcholinesterase activity was determined by a colorimetric assay based on Ellman’s methodology. […] They were dissolved in DMSO and then diluted with buffer (50 mM of Tris-HCl, with a pH of 8 containing 0.1 M NaCl), 0.1% bovine serum albumin (BSA), 25 µL of acetylthiocholine iodide. The plate was incubated at 25 °C for 15 min. […] Each assay was done in triplicate. The percentage of inhibition of AChE was determined by the following formula: Inhibition (%) = [(OD of control − OD of sample)/OD of control] × 100.

[2] = target: α-glucosidase from Saccharomyces cerevisiae (Saccharomyces cerevisiae, UniProt P53341); test: In vitro α-glucosidase inhibition (p-NPG substrate); details: for IC50: IC50 for inhibition of α-glucosidase, tested 1–256 µg/mL, mean of three replicates ± SD; for inhibition at 1 µg/mL / inhibition at 4 µg/mL / inhibition at 16 µg/mL / inhibition at 64 µg/mL / inhibition at 256 µg/mL: read-out: α-Glucosidase Inhibition (%);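 on all read-outs here: yeast α-glucosidase at 0.2 U/mL with p-nitrophenyl α-D-glucopyranoside substrate in 100 mM potassium phosphate pH 6.8, product read by absorbance at 410 nm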
Chain of α-glucosidase from Saccharomyces cerevisiae (P53341 whole entry): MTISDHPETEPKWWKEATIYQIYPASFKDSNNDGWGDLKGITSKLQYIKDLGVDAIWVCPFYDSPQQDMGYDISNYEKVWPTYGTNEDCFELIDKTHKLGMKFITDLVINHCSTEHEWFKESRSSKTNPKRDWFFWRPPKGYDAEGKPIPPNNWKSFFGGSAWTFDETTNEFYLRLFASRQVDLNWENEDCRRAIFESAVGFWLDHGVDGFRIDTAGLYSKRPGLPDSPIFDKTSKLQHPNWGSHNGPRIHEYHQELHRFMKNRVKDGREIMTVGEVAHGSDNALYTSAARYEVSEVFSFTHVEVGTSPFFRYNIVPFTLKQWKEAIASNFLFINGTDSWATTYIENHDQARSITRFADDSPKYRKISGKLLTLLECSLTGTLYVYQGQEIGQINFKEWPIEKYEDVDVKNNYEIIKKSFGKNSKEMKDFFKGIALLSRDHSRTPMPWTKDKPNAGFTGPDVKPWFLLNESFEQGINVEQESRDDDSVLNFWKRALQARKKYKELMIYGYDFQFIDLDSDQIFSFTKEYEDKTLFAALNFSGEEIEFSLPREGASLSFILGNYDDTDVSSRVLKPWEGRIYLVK

[3] = system: NO production in lipopolysaccharide (LPS)-stimulated RAW 264.7 cells; test: Inhibition of NO production in LPS-stimulated RAW 264.7 cells (Griess assay); assay type: cell-based; details: for IC50 / inhibition at 500 µg/mL: Mus musculus; for IC50: RAW264.7, LPS-stimulated RAW 264.7 cells; for IC50 / IC50 for the inhibition of NO production: tested 0.8–500 µg/mL, mean of three replicates ± SD; for inhibition at 500 µg/mL: RAW264.7; for inhibition at 500 µg/mL / IC50 for the inhibition of NO production: LPS-stimulated RAW 264.7 cells
Protocol: It was supplemented with 10% fetal bovine serum (FBS) and incubated at 37 °C in humidified air with 5% CO2. […] Next, 100 μL of Griess reagent (50 μL of 1% (w/v) sulfanilamide in 5% (v/v) phosphoric acid and 50 μL of 0.1% (w/v) N-1-naphthylethylenediamine dihydrochloride) was added, and it was incubated at room temperature for about 10 min. The Griess Reagent System from Promega Cooperation (USA) was used to determine the presence of nitrite. The microplate reader was used to assess absorption at 540 nm. N^G-Methyl-L-arginine acetate (L-NMMA) (Sigma) was used as a positive control at doses of […]. […] The experiments were repeated at least three times independently.

RAW 264.7 cells = test: Cell viability (MTT) assay for cytotoxicity; assay type: cell-based
Protocol: The cells were diluted to a suitable cell density. One hundred eighty microliters of the cells were added to each well of the plate and incubated at 37 °C, 5% CO2 for 72 h. After the incubation, 10 µL of MTT solution (5 mg/mL) was added. […] Cell viability was calculated based on the formula as follows:Cell viability (%) = [(OD Sample)/(OD Control)] × 100%, where OD is the optical density recorded at 540 nm.

α-glucosidase = details: cited from earlier work
NO formation = system: NO formation; set-up: method as in doi:10.20307/nps.2019.25.1.34; details: at 40 µg/mL; ursolic acid isolated from Phryma leptostachya var. asiatica; cited from earlier work
NO production = details: at a high concentration of 1000 µM; cited from earlier work
[4] = tested 1 to 256 µg/mL, triplicate, read-out: IC50 for acetylcholinesterase inhibition (converted)
[5] = cell viability assay, concentrations as in NO assay

Chain of acetylcholinesterase (AChE) (P22303 32-614): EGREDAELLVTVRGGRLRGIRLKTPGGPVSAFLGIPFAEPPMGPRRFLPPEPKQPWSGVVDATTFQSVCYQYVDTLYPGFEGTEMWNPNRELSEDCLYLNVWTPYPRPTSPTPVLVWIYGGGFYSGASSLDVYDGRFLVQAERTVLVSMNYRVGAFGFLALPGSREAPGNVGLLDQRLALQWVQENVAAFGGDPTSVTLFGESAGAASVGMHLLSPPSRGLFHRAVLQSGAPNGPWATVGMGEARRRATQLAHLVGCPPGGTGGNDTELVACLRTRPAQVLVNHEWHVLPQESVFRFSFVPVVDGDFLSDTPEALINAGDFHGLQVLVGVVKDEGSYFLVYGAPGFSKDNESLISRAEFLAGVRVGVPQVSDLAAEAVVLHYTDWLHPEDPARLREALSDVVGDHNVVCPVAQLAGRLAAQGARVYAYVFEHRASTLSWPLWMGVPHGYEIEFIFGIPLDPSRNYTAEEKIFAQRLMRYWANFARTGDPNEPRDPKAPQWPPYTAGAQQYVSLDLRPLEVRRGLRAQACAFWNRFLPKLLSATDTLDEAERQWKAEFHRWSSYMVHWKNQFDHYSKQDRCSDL

Structure (SMILES) | IC50 [1] | Fold Change [2] | IC50 [2] | inhibition at 1 µg/mL [2] | inhibition at 4 µg/mL [2] | inhibition at 16 µg/mL [2] | inhibition at 64 µg/mL [2] | inhibition at 256 µg/mL [2] | IC50 [3] | inhibition at 500 µg/mL [3] | IC50 [1, 4] | IC50 for the inhibition of NO production [3] | Cytotoxicity against RAW 264.7 cells (RAW 264.7 cells) | IC50 α-glucosidase (α-glucosidase; compounds isolated from Clinopodium taxifolium) | Manner of α-glucosidase inhibition (α-glucosidase) | Reduction of cell growth (RAW 264.7 cells; at 100 µg/mL, RAW 264.7 cells, MTT) | Cytotoxicity against RAW 264.7 cells (RAW 264.7 cells; [5]) | Effect on NO formation (NO formation) | Blocking of NO production (NO production)
C[C@H]1C(=O)CC[C@@H]2[C@]1(C)CC[C@H]1[C@@]2(C)CC[C@@]2(C)[C@@H]3CC(C)(C)CC[C@]3(C)CC[C@]12C [Compound 1, friedelin] | > 600 µM | <0.663 | > 600 µM | 1% | 1% | 13% | 20% | 23% | > 500 µg/mL | 37.6% |  |  |  |  |  |  |  |  | 
C[C@@H]1CC[C@]2(C(=O)O)CC[C@]3(C)C(=CC[C@@H]4[C@@]5(C)CC[C@H](O)[C@@](C)(CO)[C@@H]5CC[C@]43C)[C@@H]2[C@]1(C)O [Compound 2, rotundic acid] |  | <0.663 | > 524 µM | 1% | 1% | 1% | 4% | 33% | 241 µg/mL (≈ 494 µM) |  | > 524 µM | 241.3 ± 8.2 µg/mL |  |  |  |  |  |  | 
C[C@@H]1CC[C@]2(C(=O)O[C@@H]3O[C@H](CO)[C@@H](O)[C@H](O)[C@H]3O)CC[C@]3(C)C(=CC[C@@H]4[C@@]5(C)CC[C@H](O)[C@@](C)(CO)[C@@H]5CC[C@]43C)[C@@H]2[C@]1(C)O [Compound 3, pedunculoside] | > 393 µM | 0.918 | 284 µM | 1% | 3% | 9.5% | 32% | 60.5% | 273 ± 8.2 µg/mL (≈ 420 µM) |  |  |  | without cytotoxicity |  |  |  |  |  | 
C[C@H]1[C@H](C)CC[C@]2(CO)CC[C@]3(C)C(=CC[C@@H]4[C@@]5(C)CC[C@H](O)C(C)(C)[C@@H]5CC[C@]43C)[C@H]12 [Compound 4, uvaol] | > 578 µM |  |  |  |  |  |  |  | 246 µg/mL (≈ 557 µM) |  |  | 246.5 ± 18.7 µg/mL |  | 521.0 µg/mL (≈ 1180 µM) |  |  |  |  | 
C[C@H]1[C@H](C)CC[C@]2(C(=O)O)CC[C@]3(C)C(=CC[C@@H]4[C@@]5(C)CC[C@H](O)C(C)(C)[C@@H]5CC[C@]43C)[C@H]12 [Compound 5, ursolic acid] |  |  | 2.41 µM | 48.5% | 91.5% | 95% | 98% | 99% | 43.9 ± 3.7 µg/mL (≈ 96.1 µM) | 84% | 17.5 µM |  |  |  | non-competitive | 23.3% | moderate cytotoxicity | 80.6% | 
CC(C)=CCC[C@](C)(O[C@@H]1O[C@H](CO[C@@H]2O[C@H](CO)[C@@H](O)[C@H](O)[C@H]2O)[C@@H](O)[C@H](O)[C@H]1O)[C@H]1CC[C@]2(C)[C@@H]1[C@H](O)C[C@@H]1[C@@]3(C)CC[C@H](O[C@@H]4O[C@H](CO)[C@@H](O)[C@H](O)[C@H]4O)C(C)(C)[C@@H]3CC[C@]12C [Compound 6, gypenoside XVII] | > 270 µM | <0.663 | > 270 µM | 1% | 5% | 17% | 21% | 34% | 93.9 ± 5.4 µg/mL (≈ 99.1 µM) |  |  |  |  |  |  |  | no cytotoxicity |  | 
COc1ccc2c(c1)OC[C@H]1c3cc4c(cc3O[C@@H]21)OCO4 [Compound 7, pterocarpin] |  | <0.663 | > 858 µM | 0% | 3% | 3% | 12% | 25% | 229 ± 18.6 µg/mL (≈ 767 µM) |  | > 858 µM |  |  |  |  |  |  |  | 
COc1cc(/C=C/CO)cc(OC)c1O[C@@H]1O[C@H](CO)[C@@H](O)[C@H](O)[C@H]1O [Compound 8, syringin] | > 687 µM | <0.663 | > 687 µM | 0% | 1% | 8% | 9% | 12% | 303 ± 11 µg/mL (≈ 814 µM) |  |  |  |  |  |  |  |  |  | not blocked
O=c1c(-c2ccc(O)cc2)coc2cc(O[C@@H]3O[C@H](CO)[C@@H](O)[C@H](O)[C@H]3O)ccc12 [Compound 9, daidzin] | > 615 µM | <0.663 | > 615 µM | 0% | 0% | 4% | 10% | 22% | > 500 µg/mL | 39.5% |  |  |  |  |  |  |  |  | 
C[C@@H]1O[C@@H](OC[C@H]2O[C@@H](Oc3c(-c4ccc(O)c(O)c4)oc4cc(O)cc(O)c4c3=O)[C@H](O)[C@@H](O)[C@@H]2O)[C@H](O)[C@H](O)[C@H]1O [Compound 10, rutin] | 419 µM |  | 3.6 µM | 34.5% | 74% | 78% | 82.5% | 85% | 450 ± 5.2 µg/mL (≈ 736 µM) |  |  |  |  |  |  |  |  |  | 
[H]/N=C(/NC)NCCC[C@H](N)C(=O)O [L-NMMA, N^G-Methyl-L-arginine acetate, reference compound] |  |  |  |  |  |  |  |  | 8.6 µg/mL |  |  |  |  |  |  |  |  |  | 
C[C@H]1O[C@H](O[C@H]2[C@H](O)[C@@H](O)[C@@H](O[C@H]3[C@H](O)[C@@H](O)C(O)O[C@@H]3CO)O[C@@H]2CO)[C@H](O)[C@@H](O)[C@@H]1N[C@H]1C=C(CO)[C@@H](O)[C@H](O)[C@H]1O (stereo partly shown) [acarbose, reference compound] |  |  |  | 0% | 5% | 18% | 23% | 72% |  |  |  |  |  |  |  |  |  |  | 
